Assay results as given in US20260365663A1, “EMOPAMIL-BINDING PROTEIN INHIBITORS AND USES THEREOF” (BIOGEN MA INC., priority 2022, published 2026).

target: T1, EBP (Homo sapiens, UniProt Q15125); test: EBP Functional Assay (EBP immunoaffinity LC-MS assay); type: biochemical; conditions: not given
T1 construct: HEK293T cells were utilized as the source of EBP enzyme; endogenous in cells; host or cells: HEK293T
Protocol: The EBP immunoaffinity (IA) LC-MS assay measures the potency of small molecule inhibitors of EBP by quantifying their concentration-dependent changes in the enzyme's substrate and product using liquid chromatography atmospheric pressure chemical ionization multiple reaction monitoring mass spectrometry (LC-APCI MRM MS). HEK293T cells were utilized as the source of EBP enzyme. The enzyme was incubated with the small molecule inhibitors at variable concentrations for 30 min. Deuterated form of EBP substrate, zymosterol-d5 (Avanti Polar Lipids, Cat #700068P-1 mg), was then added and the plate was incubated at 37 °C for 4 h. Finally, the sterol isomers were extracted and injected to LC-APCI MRM MS. MRM transition used for the quantification for both zymosterol and dihydrolathosterol (substrate and product of EBP enzymatic reaction, respectively) is 372.3-203.2, CE 30 and DP 80 in positive ion mode. Percent conversion of the zymosterol-d5 to dehydrolathosterol-d5 was used to derive IC50 curves. Tasin-1 (1′-[(4-Methoxyphenyl)sulfonyl]-4-methyl-1,4′-bipiperidine, CAS 792927-06-1) was used as the reference small molecule inhibitor.
Percent conversion versus the compound concentration data were fit to the following 4-parameter logistic model to generate IC50 curves: […]

T1 sequence (Q15125 whole entry): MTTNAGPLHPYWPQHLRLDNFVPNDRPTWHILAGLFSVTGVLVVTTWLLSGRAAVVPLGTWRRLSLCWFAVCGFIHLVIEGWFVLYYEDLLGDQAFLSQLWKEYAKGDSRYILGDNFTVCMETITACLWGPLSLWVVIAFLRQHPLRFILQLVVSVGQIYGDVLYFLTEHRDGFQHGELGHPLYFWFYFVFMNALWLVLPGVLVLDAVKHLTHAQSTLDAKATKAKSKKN

IC50 [nM] | Structure (SMILES)
500 to 3000 | Cc1nc(C(F)(F)F)ccc1S(=O)(=O)N1CC2(CC(N3CC4(CCO4)C3)C2)C1 [Example 6, 6-(2-((2-Methyl-6-(trifluoromethyl)pyridin-3-yl)sulfonyl)-2-azaspiro[3.3]heptan-6-yl)-1-oxa-6-azaspiro[3.3]heptane]
500 to 3000 | Cc1nc(C(F)(F)F)ccc1S(=O)(=O)N1CC2(CC(N3CC4(COC4)C3)C2)C1 [Example 4, 6-(2-((2-Methyl-6-(trifluoromethyl)pyridin-3-yl)sulfonyl)-2-azaspiro[3.3]heptan-6-yl)-2-oxa-6-azaspiro[3.3]heptane]
100 to 500 | Cc1nn(C)c(S(=O)(=O)N2CC3(CCC(N4CCOCC4)C3)C2)c1Cl (stereo not drawn) [Example 37, 4-(2-((4-Chloro-1,3-dimethyl-1H-pyrazol-5-yl)sulfonyl)-2-azaspiro[3.4]octan-6-yl)morpholine]
< 100 | COc1ccc(S(=O)(=O)N2CC3(CC(N4CCC(C)CC4)CO3)C2)c(C)n1 (stereo not drawn) [Example 56, 2-((6-Methoxy-2-methylpyridin-3-yl)sulfonyl)-7-(4-methylpiperidin-1-yl)-5-oxa-2-azaspiro[3.4]octane]
500 to 3000 | O=S(=O)(c1ccc(F)cc1F)N1CC2(CCC(N3CCOCC3)C2)C1 (stereo not drawn) [Example 46, 4-(2-((2,4-Difluorophenyl)sulfonyl)-2-azaspiro[3.4]octan-6-yl)morpholine]
500 to 3000 | COc1ncc(C)cc1S(=O)(=O)N1CC2(CC(N3CC4(COC4)C3)CO2)C1 (stereo not drawn) [Example 22, 2-((2-Methoxy-5-methylpyridin-3-yl)sulfonyl)-7-(2-oxa-6-azaspiro[3.3]heptan-6-yl)-5-oxa-2-azaspiro[3.4]octane]
500 to 3000 | Cn1nc(C(F)(F)F)cc1S(=O)(=O)N1CC2(CC(N3CC4(COC4)C3)C2)C1 [Example 14, 6-(2-((1-Methyl-3-(trifluoromethyl)-1H-pyrazol-5-yl)sulfonyl)-2-azaspiro[3.3]heptan-6-yl)-2-oxa-6-azaspiro[3.3]heptane]
< 100 | CC(C)c1cc(S(=O)(=O)N2CC3(CC(N4CCOCC4)C3)C2)n(C)n1 [Example 19, 4-(2-((3-Isopropyl-1-methyl-1H-pyrazol-5-yl)sulfonyl)-2-azaspiro[3.3]heptan-6-yl)morpholine]
100 to 500 | Cc1cc(C)c(S(=O)(=O)N2CC3(CCC(N4CCOCC4)C3)C2)cn1 (stereo not drawn) [Example 47, 4-(2-((4,6-Dimethylpyridin-3-yl)sulfonyl)-2-azaspiro[3.4]octan-6-yl)morpholine]

same assay, conditions: HEK293T cells as source of EBP enzyme; zymosterol-d5 substrate; inhibitor 30 min, then 37 °C for 4 h; percent conversion to dehydrolathosterol-d5 by LC-APCI MRM MS; read-out: EBP Functional Assay

IC50 [nM] | Structure (SMILES)
< 100 | Cc1nc(C(F)(F)F)ncc1S(=O)(=O)N1CC2(CC(N(C)C3CC4(COC4)C3)C2)C1 (stereo not drawn) [Example 82, N-methyl-2-((4-methyl-2-(trifluoromethyl)pyrimidin-5-yl)sulfonyl)-N-(2-oxaspiro[3.3]heptan-6-yl)-2-azaspiro[3.3]heptan-6-amine]
100 to 500 | Cc1nc(Cl)ccc1S(=O)(=O)N1CC2(CC[C@H](N3CCOCC3)C2)C1 (single isomer, unassigned) [Example 65]
500 to 3000 | COc1ncc(C)cc1S(=O)(=O)N1CC2(CC(NC3CCOCC3)CO2)C1 (stereo not drawn) [Example 21, 2-((2-Methoxy-5-methylpyridin-3-yl)sulfonyl)-N-(tetrahydro-2H-pyran-4-yl)-5-oxa-2-azaspiro[3.4]octan-7-amine]
< 100 | COCCN(C)C1CCC2(C1)CN(S(=O)(=O)c1ccc(OC)nc1C)C2 (stereo not drawn) [Example 32, 2-((6-Methoxy-2-methylpyridin-3-yl)sulfonyl)-N-(2-methoxyethyl)-N-methyl-2-azaspiro[3.4]octan-6-amine]
< 100 | Cc1nc(C(C)(F)F)ccc1S(=O)(=O)N1CC2(CC(N3CC4(COC4)C3)C2)C1 [Example 1, 6-(2-((6-(1,1-Difluoroethyl)-2-methylpyridin-3-yl)sulfonyl)-2-azaspiro[3.3]heptan-6-yl)-2-oxa-6-azaspiro[3.3]heptane]
500 to 3000 | COc1ncc(C)cc1S(=O)(=O)N1CC2(CC(NC3CC(F)(F)C3)CO2)C1 (stereo not drawn) [Example 25, N-(3,3-Difluorocyclobutyl)-2-((2-methoxy-5-methylpyridin-3-yl)sulfonyl)-5-oxa-2-azaspiro[3.4]octan-7-amine]
100 to 500 | Cc1nc(C(F)(F)F)ncc1S(=O)(=O)N1CC2(CC(NC3CCOCC3)C2)C1 [Example 76, 2-((4-methyl-2-(trifluoromethyl)pyrimidin-5-yl)sulfonyl)-N-(tetrahydro-2H-pyran-4-yl)-2-azaspiro[3.3]heptan-6-amine]
100 to 500 | Cc1cc(S(=O)(=O)N2CC3(CC[C@@H](N4CCOCC4)C3)C2)n(C)n1 (single isomer, unassigned) [Example 66]
100 to 500 | Cc1nc(C(F)(F)F)ccc1S(=O)(=O)N1CC2(CC[C@H](N3CCOCC3)C2)C1 (single isomer, unassigned) [Example 61]
< 100 | Cn1nc(C(F)(F)F)cc1S(=O)(=O)N1CC2(CC(NCC3(C)COC3)C2)C1 [Example 12, 2-((1-Methyl-3-(trifluoromethyl)-1H-pyrazol-5-yl)sulfonyl)-N-((3-methyloxetan-3-yl)methyl)-2-azaspiro[3.3]heptan-6-amine]
100 to 500 | Cc1nc(C(F)(F)F)ncc1S(=O)(=O)N1CC2(CC(NC3CC4(COC4)C3)C2)C1 (stereo not drawn) [Example 78, 2-((4-methyl-2-(trifluoromethyl)pyrimidin-5-yl)sulfonyl)-N-(2-oxaspiro[3.3]heptan-6-yl)-2-azaspiro[3.3]heptan-6-amine]
< 100 | Cc1nc(C(C)(F)F)ccc1S(=O)(=O)N1CC2(CC(N(C)C3CCOCC3)C2)C1 [Example 72, 2-((6-(1,1-difluoroethyl)-2-methylpyridin-3-yl)sulfonyl)-N-methyl-N-(tetrahydro-2H-pyran-4-yl)-2-azaspiro[3.3]heptan-6-amine]
100 to 500 | Cc1nc(C(F)(F)F)ncc1S(=O)(=O)N1CC2(CC(NCC3CCOCC3)C2)C1 [Example 79, 2-((4-methyl-2-(trifluoromethyl)pyrimidin-5-yl)sulfonyl)-N-((tetrahydro-2H-pyran-4-yl)methyl)-2-azaspiro[3.3]heptan-6-amine]
500 to 3000 | N#Cc1ccc(F)c(S(=O)(=O)N2CC3(CC(NC4CCOCC4)CO3)C2)c1 (stereo not drawn) [Example 27, 4-Fluoro-3-((7-((tetrahydro-2H-pyran-4-yl)amino)-5-oxa-2-azaspiro[3.4]octan-2-yl)sulfonyl)benzonitrile]
500 to 3000 | N#Cc1cc(F)cc(S(=O)(=O)N2CC3(CC(N4CC5(COC5)C4)CO3)C2)c1 (stereo not drawn) [Example 28, 3-((7-(2-Oxa-6-azaspiro[3.3]heptan-6-yl)-5-oxa-2-azaspiro[3.4]octan-2-yl)sulfonyl)-5-fluorobenzonitrile]
500 to 3000 | Cc1nc(C(F)(F)F)ncc1S(=O)(=O)N1CC2(CC(N3CC4(CCO4)C3)C2)C1 [Example 16, 6-(2-((4-Methyl-2-(trifluoromethyl)pyrimidin-5-yl)sulfonyl)-2-azaspiro[3.3]heptan-6-yl)-1-oxa-6-azaspiro[3.3]heptane]
< 100 | Cc1cc(C(F)(F)F)ncc1S(=O)(=O)N1CC2(CC[C@@H](N3CCOCC3)C2)C1 (single isomer, unassigned) [Example 62]
100 to 500 | Cn1nc(C(F)(F)F)cc1S(=O)(=O)N1CC2(CC(N3CCOCC3)C2)C1 [Example 10, 4-(2-((1-Methyl-3-(trifluoromethyl)-1H-pyrazol-5-yl)sulfonyl)-2-azaspiro[3.3]heptan-6-yl)morpholine]
